Reference: PMC12073402, “A Selective MAP3K1 Inhibitor Facilitates Discovery of NPM1 as a Member of the Network” (Molecules, 2025)

What was measured:
Experiment in all cases: KiNativ kinome profiling in PANC-1 lysate
Format in all cases: binding
[1] = tested on: ABL, ARG; details: 5 µM
Summary of the method: (§1)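 PANC-1 lysates were incubated with 5 μM inhibitor or DMSO, then labeled with a desthiobiotin-ATP acyl-phosphate probe that biotinylates conserved kinase lysines. Tryptic peptides were streptavidin-enriched and quantified by LC-MS/MS, reported as % change in MS signal from duplicate treated and duplicate control samples.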

[2] = molecular target: T1, ACK (Homo sapiens, UniProt Q07912)
T1 construct: endogenous in cells; host or cells: PANC-1 cell lysate
Summary of the method: as §1

[3] = molecular target: T2, CASK (Homo sapiens, UniProt O14936); details: Lys1
T2 construct: endogenous in cells; host or cells: PANC-1 cell lysate
Summary of the method: as §1

[4] = molecular target: T3, CCRK (Homo sapiens, UniProt Q8IZL9); details: Lys2
T3 construct: endogenous in cells; host or cells: PANC-1 cell lysate
Summary of the method: as §1

[5] = molecular target: T4, CK1g2 (Homo sapiens, UniProt P78368); details: Lys2
T4 construct: endogenous in cells; host or cells: PANC-1 cell lysate
Summary of the method: as §1

[6] = molecular target: T5, DLK (Homo sapiens, UniProt Q12852); details: Lys2
T5 construct: endogenous in cells; host or cells: PANC-1 lysate
Summary of the method: as §1

[7] = molecular target: T6, EphB2 (Homo sapiens, UniProt P29323); details: ATP Loop
T6 construct: endogenous in cells; host or cells: PANC-1 lysate
Summary of the method: as §1

[8] = molecular target: T7, FAK (Homo sapiens, UniProt Q05397)
T7 construct: endogenous in cells; host or cells: PANC-1 lysate
Summary of the method: as §1

[9] = molecular target: T8, FAM20B (Homo sapiens, UniProt O75063); details: ATP
T8 construct: endogenous in cells; host or cells: PANC-1 lysate
Summary of the method: as §1

[10] = molecular target: T9, HRI (Homo sapiens, UniProt Q9BQI3); details: ATP Loop
T9 construct: we opted to conduct a kinome screen (KiNativ) in PANC-1 cell lysates; endogenous in cells; host or cells: PANC-1 cell lysate
Summary of the method: as §1

[11] = molecular target: T10, JAK1 domain1 (Homo sapiens, UniProt P23458); details: ATP Loop
T10 construct: we opted to conduct a kinome screen (KiNativ) in PANC-1 cell lysates; endogenous in cells; host or cells: PANC-1 cell lysate
Summary of the method: as §1

[12] = molecular target: T11, JAK3 domain2 (Homo sapiens, UniProt P52333); details: Lys1
T11 construct: we opted to conduct a kinome screen (KiNativ) in PANC-1 cell lysates; endogenous in cells; host or cells: PANC-1 cell lysate
Summary of the method: as §1

[13] = molecular target: T12, MAP4K5 (Homo sapiens, UniProt Q9Y4K4)
T12 construct: endogenous in cells; host or cells: PANC-1 cell lysate
Summary of the method: as §1

[14] = tested on: MARK1, MARK2; details: 5 µM; Lys1; EVAVKIIDK
Summary of the method: as §1

[15] = tested on: MARK3, MARK4; details: 5 µM; Lys1; EVAIKIIDK
Summary of the method: as §1

[16] = molecular target: T13, MARK4 (Homo sapiens, UniProt Q96L34)
T13 construct: endogenous in cells; host or cells: PANC-1
Summary of the method: as §1

[17] = molecular target: T14, MELK (Homo sapiens, UniProt Q14680); details: Lys2
T14 construct: endogenous in cells; host or cells: PANC-1
Summary of the method: as §1

[18] = molecular target: T15, MET (Homo sapiens, UniProt P08581); details: ATP Loop
T15 construct: endogenous in cells; host or cells: PANC-1
Summary of the method: as §1

[19] = molecular target: T16, MLK4 (Homo sapiens, UniProt Q5TCX8); details: Lys2
T16 construct: endogenous in cells; host or cells: PANC-1
Summary of the method: as §1

[20] = molecular target: T17, MRCKb (Homo sapiens, UniProt Q9Y5S2); details: Lys2
T17 construct: endogenous in cells; host or cells: PANC-1
Summary of the method: as §1

[21] = molecular target: T18, MSK2 domain1 (Homo sapiens, UniProt O75676)
T18 construct: endogenous in cells; host or cells: PANC-1
Summary of the method: as §1

[22] = tested on: PCTAIRE1, PCTAIRE3; details: 5 µM; Lys2; DLKPQNLLINER
Summary of the method: as §1

[23] = molecular target: T19, PIK3C2B (Homo sapiens, UniProt O00750); details: ATP
T19 construct: endogenous in cells; host or cells: PANC-1 cell lysate
Summary of the method: as §1

[24] = molecular target: T20, TNK1 (Homo sapiens, UniProt Q13470); details: Lys1
T20 construct: endogenous in cells; host or cells: PANC-1 cell lysate
Summary of the method: as §1

[25] = molecular target: T21, ULK3 (Homo sapiens, UniProt Q6PHR2); details: Lys1
T21 construct: endogenous in cells; host or cells: PANC-1 cell lysate
Summary of the method: as §1

[26] = tested on: p38d, p38g; details: 5 µM; Lys2; DLKPGNLAVNEDCELK
Summary of the method: as §1

[27] = molecular target: T22, p70S6K (Homo sapiens, UniProt P23443); details: Lys2
T22 construct: endogenous in cells; host or cells: PANC-1 cell lysate
Summary of the method: as §1

T12 sequence (Q9Y4K4 whole entry): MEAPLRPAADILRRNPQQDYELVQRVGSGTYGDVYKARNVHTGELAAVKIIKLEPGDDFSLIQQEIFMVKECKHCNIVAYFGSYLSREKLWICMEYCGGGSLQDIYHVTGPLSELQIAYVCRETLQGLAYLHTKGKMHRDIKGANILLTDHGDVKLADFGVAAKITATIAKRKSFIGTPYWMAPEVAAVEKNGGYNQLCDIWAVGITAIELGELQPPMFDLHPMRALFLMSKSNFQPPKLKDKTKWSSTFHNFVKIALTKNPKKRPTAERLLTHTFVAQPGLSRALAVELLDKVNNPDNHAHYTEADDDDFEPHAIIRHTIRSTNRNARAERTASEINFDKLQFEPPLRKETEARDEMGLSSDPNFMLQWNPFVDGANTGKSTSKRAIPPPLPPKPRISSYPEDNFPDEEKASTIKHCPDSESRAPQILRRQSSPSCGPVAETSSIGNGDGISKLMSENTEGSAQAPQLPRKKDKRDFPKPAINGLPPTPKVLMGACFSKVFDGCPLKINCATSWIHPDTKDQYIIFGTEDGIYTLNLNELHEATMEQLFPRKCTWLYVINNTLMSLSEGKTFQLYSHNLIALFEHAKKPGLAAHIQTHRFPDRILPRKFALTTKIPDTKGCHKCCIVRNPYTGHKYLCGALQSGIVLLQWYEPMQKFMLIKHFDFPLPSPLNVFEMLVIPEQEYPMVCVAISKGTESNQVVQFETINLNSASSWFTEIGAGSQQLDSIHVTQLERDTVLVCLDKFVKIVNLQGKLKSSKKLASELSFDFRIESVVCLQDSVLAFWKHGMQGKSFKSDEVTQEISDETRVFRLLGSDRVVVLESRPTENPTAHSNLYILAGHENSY
T7 sequence (Q05397 whole entry): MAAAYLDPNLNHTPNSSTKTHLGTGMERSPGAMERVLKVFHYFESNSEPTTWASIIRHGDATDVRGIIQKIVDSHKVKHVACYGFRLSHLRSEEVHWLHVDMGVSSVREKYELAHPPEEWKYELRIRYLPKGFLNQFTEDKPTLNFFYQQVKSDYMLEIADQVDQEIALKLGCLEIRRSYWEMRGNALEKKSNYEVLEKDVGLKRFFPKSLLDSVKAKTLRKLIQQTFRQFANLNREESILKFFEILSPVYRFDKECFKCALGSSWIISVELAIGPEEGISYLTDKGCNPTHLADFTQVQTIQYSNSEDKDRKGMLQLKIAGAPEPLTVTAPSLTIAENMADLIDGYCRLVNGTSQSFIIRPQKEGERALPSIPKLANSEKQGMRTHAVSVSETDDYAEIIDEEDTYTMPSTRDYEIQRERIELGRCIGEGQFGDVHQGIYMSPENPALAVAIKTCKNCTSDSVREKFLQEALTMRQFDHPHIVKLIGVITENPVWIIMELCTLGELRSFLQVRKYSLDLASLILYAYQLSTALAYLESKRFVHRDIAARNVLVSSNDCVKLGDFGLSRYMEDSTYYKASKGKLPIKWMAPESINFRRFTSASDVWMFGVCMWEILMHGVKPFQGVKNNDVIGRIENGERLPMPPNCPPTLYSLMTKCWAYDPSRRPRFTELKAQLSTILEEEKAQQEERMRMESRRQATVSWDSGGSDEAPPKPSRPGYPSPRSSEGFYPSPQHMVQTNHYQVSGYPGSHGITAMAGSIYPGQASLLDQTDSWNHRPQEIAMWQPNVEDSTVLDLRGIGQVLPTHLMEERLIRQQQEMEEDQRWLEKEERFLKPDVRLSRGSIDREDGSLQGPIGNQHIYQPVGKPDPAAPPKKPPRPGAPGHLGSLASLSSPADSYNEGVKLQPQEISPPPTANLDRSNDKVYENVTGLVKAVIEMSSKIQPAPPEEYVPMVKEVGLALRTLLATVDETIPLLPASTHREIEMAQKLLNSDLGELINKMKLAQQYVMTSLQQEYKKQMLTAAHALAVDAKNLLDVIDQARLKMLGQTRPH
T13 sequence (Q96L34 whole entry): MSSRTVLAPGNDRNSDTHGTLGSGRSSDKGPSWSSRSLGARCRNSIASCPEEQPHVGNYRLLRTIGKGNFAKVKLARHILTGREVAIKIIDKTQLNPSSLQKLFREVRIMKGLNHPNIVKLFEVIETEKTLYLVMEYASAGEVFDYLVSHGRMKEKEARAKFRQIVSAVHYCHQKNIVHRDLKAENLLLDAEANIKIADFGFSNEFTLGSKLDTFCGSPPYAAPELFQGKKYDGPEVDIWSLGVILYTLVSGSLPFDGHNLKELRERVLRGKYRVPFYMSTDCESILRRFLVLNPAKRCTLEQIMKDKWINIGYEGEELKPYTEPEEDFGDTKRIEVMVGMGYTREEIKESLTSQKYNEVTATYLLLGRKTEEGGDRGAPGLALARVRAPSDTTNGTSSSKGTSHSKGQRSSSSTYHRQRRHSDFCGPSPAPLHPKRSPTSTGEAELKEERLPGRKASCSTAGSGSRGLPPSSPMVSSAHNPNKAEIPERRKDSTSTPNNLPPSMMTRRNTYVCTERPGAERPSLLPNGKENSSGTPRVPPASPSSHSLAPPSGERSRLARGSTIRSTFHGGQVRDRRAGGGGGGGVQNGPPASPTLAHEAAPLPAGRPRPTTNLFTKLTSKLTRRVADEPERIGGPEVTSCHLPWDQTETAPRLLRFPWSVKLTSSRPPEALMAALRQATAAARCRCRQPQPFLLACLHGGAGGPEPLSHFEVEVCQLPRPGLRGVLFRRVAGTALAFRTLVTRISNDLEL
T18 sequence (O75676 whole entry, the tested form may be a part): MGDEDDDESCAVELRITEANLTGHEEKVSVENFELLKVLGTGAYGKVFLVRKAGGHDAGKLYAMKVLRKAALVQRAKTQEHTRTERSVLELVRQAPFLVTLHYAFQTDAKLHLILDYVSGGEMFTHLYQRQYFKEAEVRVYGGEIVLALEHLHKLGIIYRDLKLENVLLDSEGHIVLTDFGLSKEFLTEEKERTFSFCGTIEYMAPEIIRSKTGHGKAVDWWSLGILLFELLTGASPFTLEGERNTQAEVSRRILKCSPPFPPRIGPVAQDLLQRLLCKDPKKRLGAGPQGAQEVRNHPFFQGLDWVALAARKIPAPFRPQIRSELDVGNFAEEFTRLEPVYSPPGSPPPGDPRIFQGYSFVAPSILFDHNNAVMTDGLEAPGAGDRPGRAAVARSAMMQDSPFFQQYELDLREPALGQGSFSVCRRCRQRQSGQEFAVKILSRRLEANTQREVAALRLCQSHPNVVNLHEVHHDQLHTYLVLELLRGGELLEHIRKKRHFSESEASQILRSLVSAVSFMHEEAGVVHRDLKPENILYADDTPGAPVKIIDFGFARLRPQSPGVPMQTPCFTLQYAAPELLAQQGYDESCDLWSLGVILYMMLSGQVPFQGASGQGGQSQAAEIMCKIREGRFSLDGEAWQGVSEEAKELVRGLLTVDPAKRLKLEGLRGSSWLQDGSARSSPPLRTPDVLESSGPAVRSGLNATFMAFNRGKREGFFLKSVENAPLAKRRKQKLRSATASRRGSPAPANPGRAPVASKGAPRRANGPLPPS
T1 sequence (Q07912 whole entry): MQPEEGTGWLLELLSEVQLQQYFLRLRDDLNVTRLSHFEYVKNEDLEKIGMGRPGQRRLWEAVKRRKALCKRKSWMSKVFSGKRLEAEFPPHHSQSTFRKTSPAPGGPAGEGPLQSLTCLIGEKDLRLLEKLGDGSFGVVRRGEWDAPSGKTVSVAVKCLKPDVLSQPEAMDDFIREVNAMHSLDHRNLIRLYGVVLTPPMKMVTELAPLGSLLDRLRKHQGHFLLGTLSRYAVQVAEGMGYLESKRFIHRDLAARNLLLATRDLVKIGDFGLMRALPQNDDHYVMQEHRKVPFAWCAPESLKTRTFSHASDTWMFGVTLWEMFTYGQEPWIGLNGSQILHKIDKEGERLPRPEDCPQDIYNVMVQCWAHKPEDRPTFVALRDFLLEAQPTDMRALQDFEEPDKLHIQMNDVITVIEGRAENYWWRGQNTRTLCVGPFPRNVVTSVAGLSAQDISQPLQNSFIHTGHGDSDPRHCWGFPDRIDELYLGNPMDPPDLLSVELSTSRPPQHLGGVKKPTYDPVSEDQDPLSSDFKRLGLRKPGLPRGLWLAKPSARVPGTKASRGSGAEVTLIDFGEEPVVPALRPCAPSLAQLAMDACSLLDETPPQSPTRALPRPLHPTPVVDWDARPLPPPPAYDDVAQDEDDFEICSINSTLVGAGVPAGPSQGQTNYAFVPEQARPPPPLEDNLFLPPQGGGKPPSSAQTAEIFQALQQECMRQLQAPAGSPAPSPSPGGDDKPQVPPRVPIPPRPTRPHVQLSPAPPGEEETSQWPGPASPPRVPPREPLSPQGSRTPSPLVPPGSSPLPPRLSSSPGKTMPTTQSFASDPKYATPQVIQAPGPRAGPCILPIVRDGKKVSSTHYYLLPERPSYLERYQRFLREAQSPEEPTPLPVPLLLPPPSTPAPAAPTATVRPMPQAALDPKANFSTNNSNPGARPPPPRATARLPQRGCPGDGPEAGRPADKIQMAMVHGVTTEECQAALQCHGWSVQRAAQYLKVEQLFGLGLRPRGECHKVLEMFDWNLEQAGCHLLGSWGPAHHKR
T8 sequence (O75063 whole entry): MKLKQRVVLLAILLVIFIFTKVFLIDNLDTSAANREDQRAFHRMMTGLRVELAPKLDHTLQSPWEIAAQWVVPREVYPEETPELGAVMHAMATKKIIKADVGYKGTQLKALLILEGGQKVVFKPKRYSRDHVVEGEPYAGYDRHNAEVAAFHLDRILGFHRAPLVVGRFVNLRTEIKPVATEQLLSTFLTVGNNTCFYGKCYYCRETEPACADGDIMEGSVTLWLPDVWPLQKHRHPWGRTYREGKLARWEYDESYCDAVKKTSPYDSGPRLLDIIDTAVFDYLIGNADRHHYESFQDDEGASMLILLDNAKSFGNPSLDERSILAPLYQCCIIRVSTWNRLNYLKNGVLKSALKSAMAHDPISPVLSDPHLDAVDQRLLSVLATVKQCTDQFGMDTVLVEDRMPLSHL

SMILES: Cn1cc(-c2cnc3ccc(NC(=O)Nc4ccc(F)c(C(F)(F)F)c4)cc3n2)cn1 [51-106, 1-(4-Fluoro-3-(trifluoromethyl)phenyl)-3-(3-(1-methyl-1H-pyrazol-4-yl)quinoxalin-6-yl)urea]
- % Inhibition ([1]; Activation Loop, LMTGDTYTAHAGAKFPIK): NB (NB = No Binding (≤ 0))
- % Inhibition ([1]; Lys1, YSLTVAVKTLK): 3.5%
- % Inhibition ([1]; Lys1, YSLTVAVKTLKEDTMEVEEFLK): NB (NB = No Binding (≤ 0))
- % Inhibition ([2]; 5 µM, Activation Loop, KVPFAWCAPESLK): NB (NB = No Binding (≤ 0))
- inhibition at 5 µM ([2]; Lys1, […]): ≤ 0%
- inhibition at 5 µM [3]: ≤ 0%
- inhibition at 5 µM [4]: 4.5%
- inhibition at 5 µM [5]: ≤ 0%
- inhibition at 5 µM [6]: 5.9%
- inhibition at 5 µM [7]: ≤ 0%
- inhibition at 5 µM ([8]; ATP Loop, YMEDSTYYKASK): 22.5%
- inhibition at 5 µM ([8]; Lys1, CIGEGQFGDVHQGIYMSPENPALAVAIKTCK): 2.8%
- inhibition at 5 µM [9]: 6.6%
- inhibition at 5 µM [10]: ≤ 0%
- inhibition at 5 µM [11]: ≤ 0%
- inhibition at 5 µM [12]: 25.2%
- inhibition at 5 µM ([13]; Lys1, NVHTGELAAVKIIK): 6%
- inhibition at 5 µM ([13]; Lys2, DIKGANILLTDHGDVK): ≤ 0%
- % Inhibition [14]: NB (NB = No Binding (≤ 0))
- % Inhibition [15]: NB (NB = No Binding (≤ 0))
- inhibition at 5 µM ([16]; Lys1, EVAIKIIDKTQLNPSSLQK): ≤ 0%
- inhibition at 5 µM ([16]; Lys2, DLKAENLLLDAEANIK): 10.3%
- inhibition at 5 µM [17]: ≤ 0%
- inhibition at 5 µM [18]: 8.3%
- inhibition at 5 µM [19]: ≤ 0%
- inhibition at 5 µM [20]: ≤ 0%
- inhibition at 5 µM ([21]; Lys1, LYAMKVLR): 5.5%
- inhibition at 5 µM ([21]; Lys2, DLKLENVLLDSEGHIVLTDFGLSK): ≤ 0%
- % Inhibition [22]: 4.8%
- inhibition at 5 µM [23]: 2.9%
- inhibition at 5 µM [24]: 1.9%
- inhibition at 5 µM [25]: ≤ 0%
- % Inhibition [26]: NB (NB = No Binding (≤ 0))
- inhibition at 5 µM [27]: ≤ 0%
